Assays:
FLK-1 receptor = target: T1, FLK-1 receptor (Mus musculus, UniProt P35918); experiment: FLK-1 ELISA (kinase activity of the FLK-1 receptor in FLK-1/NIH3T3 cells, VEGF stimulated); format: cell-based; set-up: concentration or dose not given beside the values
T1 construct: expressed in transfected cells; host or cells: NIH3T3 C7#3
Method: An enzyme linked immunosorbent assay (ELISA) was conducted to measure the catalytic activity of the FLK-1 receptor and more specifically, the inhibition or activation of indolinone compounds on the catalytic activity of the FLK-1 receptor. Specifically, the following assay was conducted to measure catalytic activity of the FLK-1 receptor in FLK-1/NIH3T3 cells.
The materials and protocol for the FLK-1 ELISA assay are as described in International Patent Publication No. WO 96/40116, published December 19, 1996 by Tang et al.
Selected compounds were tested in the FLK-1 ELISA assay.
An ELISA assay was conducted to measure the kinase activity of the FLK-1 receptor and more specifically, the inhibition or activation of protein tyrosine kinase activity on the FLK-1 receptor. Specifically, the following assay was conducted to measure kinase activity of the FLK-1 receptor in FLK-1/NIH3T3 cells.
Materials. The following reagents and supplies were used: • a. […] Cappel goat anti-rabbit IgG (catalog no. 55641); • c. PBS (Gibco Catalog No. 450-1300EB); • d. TBSW Buffer (50 mM Tris (pH 7.2), 150 mM NaCl and 0.1% Tween-20); • e. Ethanolamine stock (10% ethanolamine (pH 7.0), stored at 4°C); • f. HNTG buffer (20mM HEPES buffer (pH 7.5), 150mM NaCl, 0.2% Triton X-100, and 10% glycerol); • g. EDTA (0.5 M (pH 7.0) as a 100X stock); • h. Sodium ortho vanadate (0.5 M as a 100X stock); • i. Sodium pyro phosphate (0.2M as a 100X stock); • j. NUNC 96 well V bottom polypropylene plates (Applied Scientific Catalog No. AS-72092); • k. NIH3T3 C7#3 Cells (FLK-1 expressing cells); • l. DMEM with 1X high glucose L Glutamine (catalog No. 11965-050); • m. FBS, Gibco (catalog no. 16000-028); • n. L-glutamine, Gibco (catalog no. 25030-016); • o. VEGF, PeproTech, Inc. (catalog no. 100-20)(kept as 1 µg/100 µl stock in Milli-Q dH2O and stored at -20°C; • p. Affinity purified anti-FLK-1 antiserum which can be obtained or purified as follows: • 1. Prepare a Tresyl-Activated Agarose/Flk-1-D column by incubating 10 ml of Tresyl-Activated Agarose with 20 mg of purified GST-Flk-1-D fusion protein in 100mM sodium bicarbonate (pH 9.6) buffer overnight at 4 °C. • 2. Wash the column once with PBS. • 3. Block the excess sites on the column with 2 M glycine for 2 hours at 4°C. • 4. Wash the column with PBS. • 5. Incubate the column with Rabbit anti-Flk-1D production bleed for 2 hours at 4 °C. • 6. Wash the column with PBS. • 7. Elute antiserum with 100 mM Citric Acid, pH3.0 and neutralize the eluate immediately with 2 M Tris, pH 9.0. • 8. Dialyize the eluate against PBS overnight at 4 °C with 3 changes of buffer (sample to buffer ratio is 1:100). • 9. Adjust the dialyized antiserum to 5% glycerol and store at -80 °C in small aliquotes. • q.
Protocol. The following protocol was used for conducting the assay: • 1. Coat Corning 96-well elisa plates with 1.0µg per well Cappel Anti-rabbit IgG antibody in 0.1M Na2CO3 pH 9.6. Bring final volume to 150 µl per well. Coat plates overnight at 4°C. Plates can be kept up to two weeks when stored at 4°C. • 2. Grow cells in Growth media(DMEM, supplemental with 2.0mM L-Glutamine, 10% FBS) in suitable culture dishes until confluent at 37°C, 5% CO2. • 3. Harvest cells by trypsinization and seed in Corning 25850 polystyrene 96-well roundbottom cell plates, 25.000 cells/well in 200µl of growth media. • 4. Grow cells at least one day at 37°C, 5% CO2. • 5. Wash cells with D-PBS 1X. • 6. Add 200µl/well of starvation media (DMEM, 2.0mM 1-Glutamine, 0.1% FBS). Incubate overnight at 37°C, 5% CO2. • 7. Dilute Compounds/Extracts 1:20 in polypropylene 96 well plates using starvation media. Dilute dimethylsulfoxide 1:20 for use in control wells. • 8. Remove starvation media from 96 well cell culture plates and add 162 µl of fresh starvation media to each well. • 9. Add 18µl of 1:20 diluted Compound/Extract dilution (from step 7) to each well plus the 1:20 dimethylsulfoxide dilution to the control wells (+/- VEGF), for a final dilution of 1:200 after cell stimulation. […]

PDGF-R = PDGF-R (Homo sapiens, UniProt P09619); experiment: PDGF-R ELISA; format: cell-based
PDGF-R, sequence (P09619 33-1106, species assumed): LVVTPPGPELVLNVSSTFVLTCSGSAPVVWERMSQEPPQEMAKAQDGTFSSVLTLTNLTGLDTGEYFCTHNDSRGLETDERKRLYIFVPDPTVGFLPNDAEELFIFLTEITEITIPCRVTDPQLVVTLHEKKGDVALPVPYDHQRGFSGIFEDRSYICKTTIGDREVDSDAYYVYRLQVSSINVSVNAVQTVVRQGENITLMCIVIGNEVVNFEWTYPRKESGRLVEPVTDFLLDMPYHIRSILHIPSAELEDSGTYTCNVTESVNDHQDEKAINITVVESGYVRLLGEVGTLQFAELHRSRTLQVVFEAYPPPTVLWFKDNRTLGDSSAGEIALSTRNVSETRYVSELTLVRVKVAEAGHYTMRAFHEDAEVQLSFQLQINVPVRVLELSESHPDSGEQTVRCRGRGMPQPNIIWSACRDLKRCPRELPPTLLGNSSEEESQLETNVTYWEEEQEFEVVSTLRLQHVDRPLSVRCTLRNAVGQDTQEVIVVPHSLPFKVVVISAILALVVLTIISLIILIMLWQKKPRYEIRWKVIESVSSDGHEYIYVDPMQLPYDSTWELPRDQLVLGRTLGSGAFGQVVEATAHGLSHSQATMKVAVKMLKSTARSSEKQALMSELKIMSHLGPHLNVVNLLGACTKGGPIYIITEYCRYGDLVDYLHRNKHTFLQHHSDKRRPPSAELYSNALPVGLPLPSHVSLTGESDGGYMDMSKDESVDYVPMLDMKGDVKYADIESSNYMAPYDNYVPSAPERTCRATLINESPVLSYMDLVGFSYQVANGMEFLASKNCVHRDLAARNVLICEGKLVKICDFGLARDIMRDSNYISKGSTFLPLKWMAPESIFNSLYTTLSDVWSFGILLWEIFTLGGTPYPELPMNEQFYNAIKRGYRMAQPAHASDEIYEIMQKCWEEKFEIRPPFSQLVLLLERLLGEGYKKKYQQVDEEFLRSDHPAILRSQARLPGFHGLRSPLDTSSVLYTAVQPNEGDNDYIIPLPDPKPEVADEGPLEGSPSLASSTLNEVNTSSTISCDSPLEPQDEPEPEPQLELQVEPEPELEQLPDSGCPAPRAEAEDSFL
Text: A PDGF-R ELISA is described in International Patent Publication No. WO 96/40116, published December 19, 1996 by Tang et al.

T1 sequence (P35918 20-1345): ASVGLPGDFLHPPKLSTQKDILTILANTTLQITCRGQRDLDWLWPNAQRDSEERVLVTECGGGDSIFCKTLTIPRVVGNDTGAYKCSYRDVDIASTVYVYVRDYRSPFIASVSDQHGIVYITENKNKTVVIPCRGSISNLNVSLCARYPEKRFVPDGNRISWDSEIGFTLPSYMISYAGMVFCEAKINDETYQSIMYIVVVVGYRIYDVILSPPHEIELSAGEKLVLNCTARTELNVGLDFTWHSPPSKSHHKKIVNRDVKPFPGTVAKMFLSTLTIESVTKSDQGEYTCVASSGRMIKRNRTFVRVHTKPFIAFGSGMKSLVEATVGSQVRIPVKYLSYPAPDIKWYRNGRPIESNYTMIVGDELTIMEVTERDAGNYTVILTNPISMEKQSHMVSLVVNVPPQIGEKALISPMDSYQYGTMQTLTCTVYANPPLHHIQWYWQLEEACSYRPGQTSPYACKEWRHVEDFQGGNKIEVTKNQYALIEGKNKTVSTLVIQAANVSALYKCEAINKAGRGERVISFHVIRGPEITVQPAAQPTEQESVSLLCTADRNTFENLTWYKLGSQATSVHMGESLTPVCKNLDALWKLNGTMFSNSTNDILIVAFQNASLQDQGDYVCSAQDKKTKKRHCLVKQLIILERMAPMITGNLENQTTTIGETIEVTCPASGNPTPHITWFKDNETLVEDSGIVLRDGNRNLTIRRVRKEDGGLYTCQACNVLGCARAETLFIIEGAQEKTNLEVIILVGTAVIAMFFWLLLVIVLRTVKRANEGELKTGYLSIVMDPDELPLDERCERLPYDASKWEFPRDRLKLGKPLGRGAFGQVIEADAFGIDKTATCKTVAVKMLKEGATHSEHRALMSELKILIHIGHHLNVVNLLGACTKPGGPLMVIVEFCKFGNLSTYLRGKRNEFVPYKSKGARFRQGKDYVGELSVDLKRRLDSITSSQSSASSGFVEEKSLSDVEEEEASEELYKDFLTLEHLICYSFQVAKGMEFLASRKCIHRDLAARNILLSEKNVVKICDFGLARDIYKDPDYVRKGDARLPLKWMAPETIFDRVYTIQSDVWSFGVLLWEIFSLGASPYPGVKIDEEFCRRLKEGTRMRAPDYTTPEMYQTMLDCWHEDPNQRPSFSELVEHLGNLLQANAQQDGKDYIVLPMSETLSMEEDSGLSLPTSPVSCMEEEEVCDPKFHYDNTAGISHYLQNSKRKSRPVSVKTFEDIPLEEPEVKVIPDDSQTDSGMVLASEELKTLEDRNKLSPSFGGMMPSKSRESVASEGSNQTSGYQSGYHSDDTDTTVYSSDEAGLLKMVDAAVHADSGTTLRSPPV

COc1c(I)cc(C=C2C(=O)Nc3ccc(Br)c(C)c32)cc1C(C)(C)C [10732/C11]
Fik Kinase %Inhibition (FLK-1 receptor): 18.2% | PDGF Kinase %Inhibition (PDGF-R): 16.4%

COc1c(Cl)cc(C=C2C(=O)Nc3c(Br)cc(Br)cc32)cc1C(C)(C)C [10732/A09]
Fik Kinase %Inhibition (FLK-1 receptor): -11.2% | PDGF Kinase %Inhibition (PDGF-R): 8.8%

C=C(C)C1CC=C(C=C2C(=O)Nc3ccc(S(=O)(=O)N4CCOCC4)cc32)CC1 (stereo not drawn) [10731/F04]
Fik Kinase %Inhibition (FLK-1 receptor): 24.5% | PDGF Kinase %Inhibition (PDGF-R): 3.2%

COc1c(Br)cc(C=C2C(=O)Nc3ccc(I)cc32)cc1C(C)(C)C [10732/B07]
Fik Kinase %Inhibition (FLK-1 receptor): 1.6% | PDGF Kinase %Inhibition (PDGF-R): 21.4%

CNS(=O)(=O)c1ccc2c(c1)C(=Cc1ccc(OC)c(C(C)(C)C)c1)C(=O)N2 [10732/D05]
Fik Kinase %Inhibition (FLK-1 receptor): 15.7% | PDGF Kinase %Inhibition (PDGF-R): 4.3%

CC(C)c1ccc2occ(C=C3C(=O)Nc4ccc(S(=O)(=O)Nc5ccc(C(F)(F)F)cc5)cc43)c(=O)c2c1 [10731/E05]
Fik Kinase %Inhibition (FLK-1 receptor): 7.0% | PDGF Kinase %Inhibition (PDGF-R): 27.0%

CN1C(=O)C(=C2C(=O)Nc3ccc(S(=O)(=O)Nc4ccc(C(F)(F)F)cc4)cc32)c2ccccc21 [10731/E10]
Fik Kinase %Inhibition (FLK-1 receptor): 33.1% | PDGF Kinase %Inhibition (PDGF-R): 21.7%

O=C1Nc2ccc(S(=O)(=O)N3CCOCC3)cc2C1=Cc1c[nH]c(=O)[nH]c1=O [10731/F08]
Fik Kinase %Inhibition (FLK-1 receptor): 9.2% | PDGF Kinase %Inhibition (PDGF-R): 4.1%

CN1C(=O)C(=C2C(=O)Nc3ccc(S(=O)(=O)N4CCOCC4)cc32)c2ccccc21 [10731/F10]
Fik Kinase %Inhibition (FLK-1 receptor): 11.0% | PDGF Kinase %Inhibition (PDGF-R): 28.4%

CCn1c2ccccc2c2cc(C=C3C(=O)Nc4ccc(S(=O)(=O)N5CCOCC5)cc43)ccc21 [10731/F02]
Fik Kinase %Inhibition (FLK-1 receptor): 11.1% | PDGF Kinase %Inhibition (PDGF-R): 14.1%

CC(C)(C)c1cc(C=C2C(=O)Nc3c(Br)cc(Br)cc32)cc(Br)c1OCc1ccccc1 [10732/A08]
Fik Kinase %Inhibition (FLK-1 receptor): -10.0% | PDGF Kinase %Inhibition (PDGF-R): 31.0%

COc1ccc2[nH]cc(C=C3C(=O)Nc4ccc(CCCl)cc43)c2c1 [10731/G09]
Fik Kinase %Inhibition (FLK-1 receptor): 13.3% | PDGF Kinase %Inhibition (PDGF-R): -8.7%

CC(C)(C)c1cc(C=C2C(=O)Nc3c(Br)cc(Br)cc32)cc(Cl)c1OCc1ccccc1 [10732/A10]
Fik Kinase %Inhibition (FLK-1 receptor): 10.2% | PDGF Kinase %Inhibition (PDGF-R): 7.3%

COc1c(Br)cc(C=C2C(=O)Nc3c(Br)cc(Br)cc32)cc1C(C)(C)C [10732/A07]
Fik Kinase %Inhibition (FLK-1 receptor): -19.8% | PDGF Kinase %Inhibition (PDGF-R): 0.7%

CNS(=O)(=O)c1ccc2c(c1)C(=C1C(=O)N(C)c3ccccc31)C(=O)N2 [10731/D10]
Fik Kinase %Inhibition (FLK-1 receptor): 13.0% | PDGF Kinase %Inhibition (PDGF-R): 9.9%

Cc1c(Br)ccc2c1C(=Cc1cc(C(C)C)c(Oc3ccccc3)c(C(C)C)c1)C(=O)N2 [10732/C04]
Fik Kinase %Inhibition (FLK-1 receptor): 12.8% | PDGF Kinase %Inhibition (PDGF-R): 3.8%

CC(C)c1ccc2occ(C=C3C(=O)Nc4ccc(CCCl)cc43)c(=O)c2c1 [10731/G05]
Fik Kinase %Inhibition (FLK-1 receptor): 17.5% | PDGF Kinase %Inhibition (PDGF-R): 8.0%

CNS(=O)(=O)c1ccc2c(c1)C(=Cc1ccc(OCc3ccccc3)c(C(C)(C)C)c1)C(=O)N2 [10732/D06]
Fik Kinase %Inhibition (FLK-1 receptor): 16.3% | PDGF Kinase %Inhibition (PDGF-R): 16.4%

COc1ccc(C=C2C(=O)Nc3ccc(Br)c(C)c32)cc1C(C)(C)C [10732/C05]
Fik Kinase %Inhibition (FLK-1 receptor): 11.2% | PDGF Kinase %Inhibition (PDGF-R): -17.0%

C=C(C)C1CC=C(C=C2C(=O)Nc3ccc(CCCl)cc32)CC1 (stereo not drawn) [10731/G04]
Fik Kinase %Inhibition (FLK-1 receptor): 14.5% | PDGF Kinase %Inhibition (PDGF-R): 0.3%

CNS(=O)(=O)c1ccc2c(c1)C(=Cc1cc(C(C)C)c(OC)c(C(C)C)c1)C(=O)N2 [10732/D03]
Fik Kinase %Inhibition (FLK-1 receptor): 22.5% | PDGF Kinase %Inhibition (PDGF-R): 26.0%

CCn1c2ccccc2c2cc(C=C3C(=O)Nc4ccc(S(=O)(=O)Nc5ccc(C(F)(F)F)cc5)cc43)ccc21 [10731/E02]
Fik Kinase %Inhibition (FLK-1 receptor): 11.2% | PDGF Kinase %Inhibition (PDGF-R): 13.7%

CNS(=O)(=O)c1ccc2c(c1)C(=CC(c1cccs1)C(F)(F)F)C(=O)N2 (stereo not drawn) [10732/D02]
Fik Kinase %Inhibition (FLK-1 receptor): 9.2% | PDGF Kinase %Inhibition (PDGF-R): -24.0%

CNS(=O)(=O)c1ccc2c(c1)C(=Cc1coc3ccc(C)cc3c1=O)C(=O)N2 [10731/D06]
Fik Kinase %Inhibition (FLK-1 receptor): 16.1% | PDGF Kinase %Inhibition (PDGF-R): 8.0%

O=C1Nc2ccc(S(=O)(=O)Nc3ccc(C(F)(F)F)cc3)cc2C1=Cc1coc2ccc([N+](=O)[O-])cc2c1=O [10731/E07]
Fik Kinase %Inhibition (FLK-1 receptor): 12.6% | PDGF Kinase %Inhibition (PDGF-R): 3.7%

COc1c(Cl)cc(C=C2C(=O)Nc3ccc(I)cc32)cc1C(C)(C)C [10732/B09]
Fik Kinase %Inhibition (FLK-1 receptor): 14.0% | PDGF Kinase %Inhibition (PDGF-R): 18.4%

Cc1c(Br)ccc2c1C(=Cc1cc(Br)c(OCc3ccccc3)c(C(C)(C)C)c1)C(=O)N2 [10732/C08]
Fik Kinase %Inhibition (FLK-1 receptor): 7.6% | PDGF Kinase %Inhibition (PDGF-R): 17.9%

COc1ccc(C=C2C(=O)Nc3c(Br)cc(Br)cc32)cc1C(C)(C)C [10732/A05]
Fik Kinase %Inhibition (FLK-1 receptor): -3.9% | PDGF Kinase %Inhibition (PDGF-R): -12.9%

CN1C(=O)C(=C2C(=O)Nc3ccc(CCCl)cc32)c2ccccc21 [10731/G10]
Fik Kinase %Inhibition (FLK-1 receptor): -9.0% | PDGF Kinase %Inhibition (PDGF-R): 5.6%

Cc1c(Br)ccc2c1C(=Cc1cc(Cl)c(OCc3ccccc3)c(C(C)(C)C)c1)C(=O)N2 [10732/C10]
Fik Kinase %Inhibition (FLK-1 receptor): 15.1% | PDGF Kinase %Inhibition (PDGF-R): 5.8%

Cc1ccc2occ(C=C3C(=O)Nc4ccc(CCCl)cc43)c(=O)c2c1 [10731/G06]
Fik Kinase %Inhibition (FLK-1 receptor): 10.8% | PDGF Kinase %Inhibition (PDGF-R): -0.6%

CCn1c2ccccc2c2cc(C=C3C(=O)Nc4ccc(CCCl)cc43)ccc21 [10731/G02]
Fik Kinase %Inhibition (FLK-1 receptor): 16.8% | PDGF Kinase %Inhibition (PDGF-R): -10.1%

CC(C)(C)c1cc(C=C2C(=O)Nc3ccc(I)cc32)cc(Cl)c1OCc1ccccc1 [10732/B10]
Fik Kinase %Inhibition (FLK-1 receptor): 12.1% | PDGF Kinase %Inhibition (PDGF-R): 0.7%

COc1c(I)cc(C=C2C(=O)Nc3c(Br)cc(Br)cc32)cc1C(C)(C)C [10732/A11]
Fik Kinase %Inhibition (FLK-1 receptor): -0.6% | PDGF Kinase %Inhibition (PDGF-R): 40.1%

O=C1Nc2ccc(I)cc2C1=CC(c1cccs1)C(F)(F)F (stereo not drawn) [10732/B02]
Fik Kinase %Inhibition (FLK-1 receptor): 2.9% | PDGF Kinase %Inhibition (PDGF-R): 23.5%

Cc1cc2occ(C=C3C(=O)Nc4ccc(S(=O)(=O)Nc5ccc(C(F)(F)F)cc5)cc43)c(=O)c2cc1C [10731/E03]
Fik Kinase %Inhibition (FLK-1 receptor): -1.4% | PDGF Kinase %Inhibition (PDGF-R): 15.6%

CNS(=O)(=O)c1ccc2c(c1)C(=Cc1c[nH]c(=O)[nH]c1=O)C(=O)N2 [10731/D08]
Fik Kinase %Inhibition (FLK-1 receptor): 25.8% | PDGF Kinase %Inhibition (PDGF-R): -8.7%

O=C1Nc2c(Br)cc(Br)cc2C1=CC(c1cccs1)C(F)(F)F (stereo not drawn) [10732/A02]
Fik Kinase %Inhibition (FLK-1 receptor): -12.5% | PDGF Kinase %Inhibition (PDGF-R): 10.8%

O=C1Nc2ccc(S(=O)(=O)Nc3ccc(C(F)(F)F)cc3)cc2C1=Cc1c[nH]c(=O)[nH]c1=O [10731/E08]
Fik Kinase %Inhibition (FLK-1 receptor): 10.5% | PDGF Kinase %Inhibition (PDGF-R): 8.9%

Source: patent EP1247803A2, “Indolinone compounds suitable for modulation of protein kinases” (Sugen, Inc., priority 1996, dated 1998)
